Laboratory results reported in paper PMC11456916, “A screen for cell envelope stress uncovers an inhibitor of prolipoprotein diacylglyceryl transferase, Lgt, in Escherichiacoli” (iScience, 2024).

Test system: 356 CRISPRi constructs in E. coli ΔtolC-pore
Experiment: CRISPRi collection fitness screen with sub-inhibitory compound
Format: cell-based
Settings: sub-inhibitory (¼ MIC) concentration, LB agar, basal knockdown
Text: To that end, we screened the E. coli CRISPRi collection in the ΔtolC-pore genetic background with a sub-inhibitory concentration of MAC-0452936 and measured the fitness of all 356 CRISPRi mutants (Figure 4C and Data S4). […] To that end, we introduced either an arabinose inducible copy of lgt supplied on the pCHAP9231 plasmid[48] or the pBAD19s plasmid as a control into E. coli ΔtolC-pore and tested the potency of MAC-0452936 (Figure 4E). […] To test this hypothesis, we constructed E. coli ΔlgtΔtolC-pore with pCHAP9231[48] so that lgt expression was driven solely by arabinose from the plasmid.
For screens of the CRISPRi collection with MAC-0452936, the mobile CRISPRi collection was first conjugated into E. coli ΔtolC-pore as previously described.[30] The CRISPRi collection was then arrayed on solid agar at 1536 density using the Singer-ROTOR, such that each CRISPRi strain is arrayed in technical quadruplicate. […] The screens were conducted without CRISPRi induction, using just the 5–10% basal knockdown from the pFD152 CRISPRi plasmid. Following overnight growth, plates were imaged using high-resolution scanners (Epson Perfection v750), and colony biomass for each mutant was determined.

Q: With `COc1ccc(C(=O)O/N=C(\c2cccs2)C(C)(C)C)cc1` [MAC-0452936, (Z)-2-Pivaloylthiophene O-(4-methoxybenzoyl) oxime] as the compound, how does the “growth defect of the lgt CRISPRi mutant in the presence of compound” value read?
A: Its value is “considerable growth defect”.
